Assay results as given in US7026281B1, “Antagonistic analogs of GH-RH inhibiting IGF-I and -II” (The Administrators of the Tulane Educational Fund, priority 1998, dated 2006).
Square brackets hold non-standard residues; d marks the D form. Peptide text beside a SMILES is read from it. * marks the point of attachment. Phe(4-Cl) = N[C@@H](Cc1ccc(Cl)cc1)C(=O)O; hArg = N=C(N)NCCCC[C@H](N)C(=O)O; X1 = O=C(Cc1c[nH]c2ccccc12)*; Nle = CCCC[C@H](N)C(=O)O; Abu = CC[C@H](N)C(=O)O; PhAc = O=C(Cc1ccccc1)*

What was measured:
[1] = tested on: hGH-RH(1–29)NH2 induced GH release; assay: Inhibition of GH release in superfused rat pituitary system; format: cell-based; conditions: for Inhibition of GH release (%) 30 min: 1 nM hGH-RH(1–29)NH2 30 min later; for Inhibition of GH release (%) 60 min: 1 nM hGH-RH(1–29)NH2 60 min later; for Inhibition of GH release (%) 90 min: 1 nM hGH-RH(1–29)NH2 90 min later; for Inhibition of GH release (%) 120 min: 1 nM hGH-RH(1–29)NH2 120 min later; for Inhibition of GH release (%) 0 min: 1 nM hGH-RH(1–29)NH2 at 0 min
Protocol: Superfused Rat Pituitary System.
The analogs were tested in vitro in a test described earlier (S. Vigh and A. V. Schally, Peptides 5:241–347, 1984) with modification (Z. Rekasi and A. V. Schally, P.N.A.S. 90:2146–2149, 1993).
Briefly, the cells are preincubated with peptides for 9 minutes (3 mL) at various concentrations. Immediately after the incubation, 1 nM hGH-RH(1–29)NH2 is administered for 3 minutes (1 mL) [0 minute response]. To check the duration of the antagonistic effect of the analogue, 1 nM hGH-RH(1–29)NH2 is applied 30, 60, 90, and 120 minutes later for 3 minutes [30, 60, 90, 120 min responses]. Net integral values of the GH responses are evaluated. GH responses are compared to and expressed as percent of the original GH response induced by 1 nM GH-RH(1–29)NH2. The effect of the new antagonists are compared to that of [Ac-Tyr^1,D-Arg^2]hGH-RH(1–29)NH2, the “Standard antagonist”.
Growth Hormone Radio-immunoassay.
Rat GH levels in aliquots of undiluted and diluted superfusion samples were measured by double-antibody radioimmunoassay using materials supplied by the National Hormone and Pituitary Program, Baltimore, Md. The results of RIA were analyzed with a computer program developed in our institute (V. Csernus and A. V. Schally, in Neuroendocrine Research Methods, Harwood Academic (Greenstein, B. D. ed., London, pp. 71–109, 1991), hereby incorporated by reference. Inter-assay variation was less than 15% and intra-assay variation was less than 10%.

[2] = target: T1, rat pituitary GH-RH receptors (Rattus norvegicus, UniProt Q02644); assay: GH-RH radioreceptor binding assay, rat anterior pituitary membrane homogenates; conditions: for Ki: competition with [His1,125I-Tyr10,Nle27]hGH-RH(1–32)NH2; for R.A. (relative affinity compared to Standard antagonist): ratio of Ki values
T1 construct: from tissue; host or cells: anterior pituitary of male Sprague-Dawley rats, crude membrane homogenates
T1 sequence (Q02644 23-464): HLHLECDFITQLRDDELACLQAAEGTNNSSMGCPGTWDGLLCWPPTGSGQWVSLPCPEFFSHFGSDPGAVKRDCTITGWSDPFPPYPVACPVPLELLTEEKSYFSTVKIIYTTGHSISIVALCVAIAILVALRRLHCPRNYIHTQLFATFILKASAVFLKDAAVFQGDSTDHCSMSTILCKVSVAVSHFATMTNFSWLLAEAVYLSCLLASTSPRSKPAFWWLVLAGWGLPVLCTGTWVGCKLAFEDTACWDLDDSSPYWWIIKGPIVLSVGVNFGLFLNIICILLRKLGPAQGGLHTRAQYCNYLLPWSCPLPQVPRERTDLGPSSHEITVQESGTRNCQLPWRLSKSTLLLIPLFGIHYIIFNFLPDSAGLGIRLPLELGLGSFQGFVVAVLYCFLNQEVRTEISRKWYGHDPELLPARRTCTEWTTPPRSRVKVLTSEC
Protocol: GH-RH Binding Assay. A sensitive radioreceptor binding assay was developed to determine the binding characteristics of the antagonists of GH-RH (G. Halmos, A. V. Schally et al., Receptor 3, 87–97, 1993), hereby incorporated by reference. The assay is based on binding of labelled [His^1,Nle^27]hGH-RH(1–32)NH2 to rat anterior pituitary membrane homogenates. Iodinated derivatives of [His^1,Nle^27]hGH-RH(1–32)NH2 are prepared by the chloramine-T method (F. C. Greenwood et al., Biochemistry 89:114–123, 1963), hereby incorporated by reference. Pituitaries from male Sprague-Dawley rats (250–300 g) are used to prepare crude membranes. For saturation binding analyses, membrane homogenates are incubated with at least 6 concentrations of [His^1,^125I-Tyr^10,Nle^27]hGH-RH(1–32) NH2, ranging from 0.005 to 0.35 nM in the presence or absence of excess unlabelled peptide (1 μM).
The pellet is counted for radioactivity in a γ-counter. The affinities of the antagonist peptides tested to rat pituitary GH-RH receptors are determined in competitive binding experiments. The final binding affinities are estimated by Ki (dissociation constant of the inhibitor-receptor complex) and are determined by the Ligand PC and McPherson computer programs of Munson and Rodbard (P. J. Munson and D. Rodbard, Anal. Biochem. 107. 220–239, 1980). Relative affinities compared to [Ac-Tyr^1,D-Arg^2]hGH-RH(1–29)NH2, the Standard antagonist, are calculated as the […].

[3] = tested on: GH release stimulated by hGH-RH(1–29)NH2; assay: In vivo inhibition of serum GH response in rats; set-up: species or system rat
Protocol: GH-RH antagonistic effect of the analogs was tested on young male Sprague-Dawley rats (200–250 g). In each experiment, 5 groups of 7 animals each were used. The compounds (80 μg/kg) and GH-RH(1–29)NH2 (3 μg/kg) were dissolved in 5.5% mannitol and given intravenously to the jugular vein of the rats under Nembutal anesthesia. The time elapsed between the administrations of the antagonist and GH-RH varied between groups, according to the following schedule. The first group of animals received GH-RH injection 5 min after the administration of the antagonist; for the second, third and fourth group of animals, the time interval elapsed between the injection of the antagonist and that of GH-RH was 15, 30, and 60 min, respectively. The control group was first injected with the solvent alone instead of the antagonist, followed by a GH-RH injection 5 min later.
0.4 mL blood samples were taken for GH RIA before the administration of the antagonist (“blood0”), and 5 min after the injection of GH-RH (“blood1”). The GH response in each group was calculated as rGH=(GHblood1/GHblood0), mean±S.E.M. of the individual differences. Relative inhibition of GH response (%) in each group treated was calculated as […].

Ki [2]	R.A. (relative affinity compared to Standard antagonist) [2]	SMILES	Inhibition of GH release (%) 30 min ([1]; antagonist 30 nM)	Inhibition of GH release (%) 60 min ([1]; antagonist 30 nM)	Inhibition of GH release (%) 90 min ([1]; antagonist 30 nM)	Inhibition of GH release (%) 120 min ([1]; antagonist 30 nM)	Inhibition of GH release (%) 0 min ([1]; antagonist 30 nM)	Inhibition of the GH release stimulated by hGH-RH(1–29)NH2 (in words) ([3]; 80 μg/kg i.v., rats)	Relative inhibition % of GH response ([3]; antagonist 80 μg/kg i.v. 5 min before GH-RH)	Relative inhibition % of GH response ([3]; antagonist 80 μg/kg i.v. 15 min before GH-RH)	GH response mean ± S.E.M. ([3]; antagonist 80 μg/kg i.v. 15 min before GH-RH 3 μg/kg)	Relative inhibition % of GH response ([3]; antagonist 80 μg/kg i.v. 30 min before GH-RH)	GH response mean ± S.E.M. ([3]; antagonist 80 μg/kg i.v. 30 min before GH-RH 3 μg/kg)	Relative inhibition % of GH response ([3]; antagonist 80 μg/kg i.v. 60 min before GH-RH)	GH response mean ± S.E.M. ([3]; antagonist 80 μg/kg i.v. 60 min before GH-RH 3 μg/kg)	GH response mean ± S.E.M. ([3]; rGH=GHblood1/GHblood0, antagonist 80 μg/kg i.v. 5 min before GH-RH 3 μg/kg)	Inhibition of GH release (%) 30 min ([1]; antagonist 100 nM)	Inhibition of GH release (%) 60 min ([1]; antagonist 100 nM)	Inhibition of GH release (%) 0 min ([1]; antagonist 100 nM)
46 pM	64	CCCC[C@H](NC(=O)[C@@H](NC(=O)[C@H](CC(=O)O)NC(=O)[C@H](CCC(N)=O)NC(=O)[C@H](CC(C)C)NC(=O)[C@H](CC(C)C)NC(=O)[C@H](CCCCN)NC(=O)[C@H](CCCNC(=N)N)NC(=O)[C@H](C)NC(=O)[C@H](CO)NC(=O)[C@H](CC(C)C)NC(=O)[C@H](CCC(N)=O)NC(=O)[C@H](CC)NC(=O)[C@H](CC(C)C)NC(=O)[C@@H](NC(=O)[C@H](CCCCN)NC(=O)[C@H](CCCNC(=N)N)NC(=O)[C@H](Cc1ccc(O)cc1)NC(=O)[C@H](CCCNC(=N)N)NC(=O)[C@H](CC(N)=O)NC(=O)[C@@H](NC(=O)[C@H](Cc1ccc(Cl)cc1)NC(=O)[C@@H](NC(=O)[C@H](C)NC(=O)[C@H](CC(=O)O)NC(=O)[C@@H](CCCNC(=N)N)NC(=O)[C@H](Cc1ccc(O)cc1)NC(=O)Cc1c[nH]c2ccccc12)[C@@H](C)CC)[C@@H](C)O)C(C)C)[C@@H](C)CC)C(=O)N[C@H](CCCNC(=N)N)C(=O)N[C@@H](CCCCNC(=N)N)C(N)=O [Peptide 2, [IndAc^0, D-Arg^2, Phe(pCl)^6, Arg^9, Abu^15, Nle^27, D-Arg^28, Har^29]hGH-RH(1–29)NH2] (X1-Y[dR]DAI[Phe(4-Cl)]TNRYRKVL[Abu]QLSARKLLQDI[Nle][dR][hArg]-NH2)	100%	100%	100%	91%	100%	strong and long-lasting inhibition	91%	45%	3.45 ± 0.13	41%	3.64 ± 0.71	2%	5.41 ± 1.35	1.40 ± 0.29	–	–	–
70 pM	42	CCCC[C@H](NC(=O)[C@H](CC(N)=O)NC(=O)[C@@H](NC(=O)[C@H](Cc1ccc(Cl)cc1)NC(=O)[C@@H](NC(=O)[C@H](C)NC(=O)[C@H](CC(=O)O)NC(=O)[C@@H](CCCNC(=N)N)NC(=O)[C@H](Cc1ccc(O)cc1)NC(=O)Cc1ccccc1)[C@@H](C)CC)[C@@H](C)O)C(=O)N[C@@H](Cc1ccc(O)cc1)C(=O)N[C@@H](CCCNC(=N)N)C(=O)N[C@@H](CCCCN)C(=O)N[C@H](C(=O)N[C@@H](CC(C)C)C(=O)N[C@@H](CC)C(=O)N[C@@H](CCC(N)=O)C(=O)N[C@@H](CC(C)C)C(=O)N[C@@H](CO)C(=O)N[C@@H](C)C(=O)N[C@@H](CCCNC(=N)N)C(=O)N[C@@H](CCCCN)C(=O)N[C@@H](CC(C)C)C(=O)N[C@@H](CC(C)C)C(=O)N[C@@H](CCC(N)=O)C(=O)N[C@@H](CC(=O)O)C(=O)N[C@H](C(=O)N[C@@H](CCCC)C(=O)N[C@@H](CO)C(=O)N[C@H](CCCNC(=N)N)C(N)=O)[C@@H](C)CC)C(C)C [Peptide 12, [PhAc^0, D-Arg^2, Phe(pCl)^6, Nle^9, Abu^15, Nle^27, D-Arg^29]hGH-RH(1–29)NH2] (PhAc-Y[dR]DAI[Phe(4-Cl)]TN[Nle]YRKVL[Abu]QLSARKLLQDI[Nle]S[dR]-NH2)	75%	48%	52%	52%	68%	–	–	–	–	–	–	–	–	–	–	–	–
2940 pM	1	CC[C@H](C)[C@H](NC(=O)[C@H](C)NC(=O)[C@H](CC(=O)O)NC(=O)[C@@H](CCCNC(=N)N)NC(=O)[C@H](Cc1ccc(O)cc1)NC(C)=O)C(=O)N[C@@H](Cc1ccccc1)C(=O)N[C@H](C(=O)N[C@@H](CC(N)=O)C(=O)N[C@@H](CO)C(=O)N[C@@H](Cc1ccc(O)cc1)C(=O)N[C@@H](CCCNC(=N)N)C(=O)N[C@@H](CCCCN)C(=O)N[C@H](C(=O)N[C@@H](CC(C)C)C(=O)NCC(=O)N[C@@H](CCC(N)=O)C(=O)N[C@@H](CC(C)C)C(=O)N[C@@H](CO)C(=O)N[C@@H](C)C(=O)N[C@@H](CCCNC(=N)N)C(=O)N[C@@H](CCCCN)C(=O)N[C@@H](CC(C)C)C(=O)N[C@@H](CC(C)C)C(=O)N[C@@H](CCC(N)=O)C(=O)N[C@@H](CC(=O)O)C(=O)N[C@H](C(=O)N[C@@H](CCSC)C(=O)N[C@@H](CO)C(=O)N[C@@H](CCCNC(=N)N)C(N)=O)[C@@H](C)CC)C(C)C)[C@@H](C)O [Standard antagonist, [Ac-Tyr^1,D-Arg^2]hGH-RH(1–29)NH2, reference compound] (Ac-Y[dR]DAIFTNSYRKVLGQLSARKLLQDIMSR-NH2)	–	–	–	–	–	–	–	–	–	–	–	–	–	–	2.5%	19%	62.1%
